Measured values reported in the supplement of paper PMC10307832.

Key:
Test in all cases: relative viability (nuclei count vs DMSO), 5 days (fraction); higher = more cells survive
SGI-1776 + Olaparib = compound: CN1CCC(CNc2ccc3ncc(-c4cccc(OC(F)(F)F)c4)n3n2)CC1 [SGI-1776] + O=C(c1cc(Cc2n[nH]c(=O)c3ccccc23)ccc1F)N1CCN(C(=O)C2CC2)CC1 [Olaparib] (partner 8 µM)
In short: (§1)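 Relative viability was taken as the ratio of nuclei in treated wells to nuclei in vehicle wells. Lung cancer cell lines in 1536-well plates received compounds by pin tool one day after seeding, either one drug alone or a fixed anchor-drug dose plus five library-drug doses (not always all listed) in √10 steps. Nuclei were counted on 4× images after 5 days of treatment, and values are medians of duplicate plates.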

[1] = compound: C1COCCN1C2=NC(=NC3=C2OC4=C3C=CC=N4)C5=CC(=CC=C5)NC(=O)C6=CN=C(C=C6)N + C[C@]1(O)C[C@@H](c2nc(-c3ccc4ccc(-c5ccccc5)nc4c3)c3c(N)nccn32)C1 [Linsitinib] (partner 1 µM)
In short: as §1

Entinostat + Linsitinib = compound: Nc1ccccc1NC(=O)c1ccc(CNC(=O)OCc2cccnc2)cc1 [Entinostat] + C[C@]1(O)C[C@@H](c2nc(-c3ccc4ccc(-c5ccccc5)nc4c3)c3c(N)nccn32)C1 [Linsitinib] (partner 1 µM)
In short: as §1

Entinostat + Navitoclax = compound: Nc1ccccc1NC(=O)c1ccc(CNC(=O)OCc2cccnc2)cc1 [Entinostat] + CC1(C)CCC(c2ccc(Cl)cc2)=C(CN2CCN(c3ccc(C(=O)NS(=O)(=O)c4ccc(N[C@H](CCN5CCOCC5)CSc5ccccc5)c(S(=O)(=O)C(F)(F)F)c4)cc3)CC2)C1 [Navitoclax] (partner 0.5 µM)
In short: as §1

UMC-11 showed a relative viability (SGI-1776 + Olaparib; first compound 0.08 µM) of 0.337, a relative viability (SGI-1776 + Olaparib; first compound 0.8 µM) of 0.433 and a relative viability (SGI-1776 + Olaparib; first compound 2.53 µM) of 0.289. The relative viability (SGI-1776 + Olaparib; first compound 8 µM) was 0.206, the relative viability ([1]; first compound 0.02 µM) was 0.966 and the relative viability ([1]; first compound 0.06325 µM) was 1.04. The relative viability ([1]; first compound 0.2 µM) was 1.11, the relative viability ([1]; first compound 0.6325 µM) was 1.34 and the relative viability ([1]; first compound 2 µM) was 0.666. It also gave a relative viability (Entinostat + Linsitinib; first compound 0.02 µM) of 1.11, a relative viability (Entinostat + Linsitinib; first compound 0.06325 µM) of 1 and a relative viability (Entinostat + Linsitinib; first compound 0.2 µM) of 0.715. The relative viability (Entinostat + Linsitinib; first compound 0.6325 µM) was 0.214, the relative viability (Entinostat + Linsitinib; first compound 2 µM) was 0.142 and the relative viability (Entinostat + Navitoclax; first compound 0.02 µM) was 0.29. The relative viability (Entinostat + Navitoclax; first compound 0.06325 µM) was 0.302, the relative viability (Entinostat + Navitoclax; first compound 0.2 µM) was 0.25 and the relative viability (Entinostat + Navitoclax; first compound 0.6325 µM) was 0.117. The relative viability (Entinostat + Navitoclax; first compound 2 µM) was 0.115.
